Here are results for 16 compounds from patent publication US11034725B2, “Compositions and methods for treating cardiovascular disease” (Genentech, Inc., priority 2016, dated 2021).

The target of one test is PCSK9 (Homo sapiens, UniProt Q8NBP7). Put plainly: PCSK9/EGF(A) TR-FRET binding assay. The note with it: TR-FRET, read-out: PCSK9/EGF(A) IC50.
The target of the next test is T1, PCSK9Δhelix (Homo sapiens, UniProt Q8NBP7).
T1 construct: Human PCSK9 construct M1-Q692 with an engineered TEV site (residue deletion Y166, R167); made in house; host or cells: CHO
Description: PCSK9Δhelix/Ab20 TR-FRET binding assay. The note with it: TR-FRET, read-out: PCSK9Δhelix/Ab20 IC50.

The subject of the next test is His-EGF(A)-Fc. Put plainly: His-EGF(A)-Fc TR-FRET counterscreen. On the technique in general: In TR-FRET formats the signal depends on donor and acceptor labels being close together.
The mark [1] stands for this setting: Table 8D, disulfide-cyclized extension peptides.
[2] abbreviates: TR-FRET counterscreen, Table 8D, * = some inhibition at highest concentrations, not sufficient to fit an IC50.
Setting [3] is: TR-FRET counterscreen, Table 8E, additional compounds.

pIC50: −log10 of the molar value. Where two headings read alike, the source gives them in different places. Bridge positions count the residues as written; N and C are the ends. Square brackets hold non-standard residues; d marks the D form. Peptide text beside a SMILES is read from it. * marks the point of attachment. Trp(6-Cl) = N[C@@H](Cc1c[nH]c2cc(Cl)ccc12)C(=O)O; hArg = N=C(N)NCCCC[C@H](N)C(=O)O; Pentanoyl = CCCCC(=O)*; Butyryl = CCCC(=O)*; Ava = NCCCCC(=O)O

PCSK9, sequence (Q8NBP7 153-692): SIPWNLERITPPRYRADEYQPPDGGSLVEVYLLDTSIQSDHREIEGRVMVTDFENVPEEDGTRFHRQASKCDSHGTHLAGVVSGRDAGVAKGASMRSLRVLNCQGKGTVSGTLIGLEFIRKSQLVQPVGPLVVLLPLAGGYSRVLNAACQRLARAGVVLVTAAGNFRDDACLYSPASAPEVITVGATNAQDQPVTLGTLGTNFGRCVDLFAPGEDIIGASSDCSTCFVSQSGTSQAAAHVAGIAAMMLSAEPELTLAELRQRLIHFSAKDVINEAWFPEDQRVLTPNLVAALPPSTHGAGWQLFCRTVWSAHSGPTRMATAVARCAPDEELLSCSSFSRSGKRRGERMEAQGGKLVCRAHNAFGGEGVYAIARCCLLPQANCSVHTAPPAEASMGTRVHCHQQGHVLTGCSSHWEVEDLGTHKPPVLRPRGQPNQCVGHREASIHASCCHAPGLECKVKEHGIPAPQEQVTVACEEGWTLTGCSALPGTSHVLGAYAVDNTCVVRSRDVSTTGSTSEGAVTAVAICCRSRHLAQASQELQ
PCSK9, sequence (Q8NBP7 31-152 partner limits assumed): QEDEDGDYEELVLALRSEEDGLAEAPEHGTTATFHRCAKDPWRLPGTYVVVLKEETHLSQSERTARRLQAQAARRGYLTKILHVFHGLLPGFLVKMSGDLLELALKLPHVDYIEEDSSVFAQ
T1 sequence (Q8NBP7 with tags, fused parts or gaps limits assumed): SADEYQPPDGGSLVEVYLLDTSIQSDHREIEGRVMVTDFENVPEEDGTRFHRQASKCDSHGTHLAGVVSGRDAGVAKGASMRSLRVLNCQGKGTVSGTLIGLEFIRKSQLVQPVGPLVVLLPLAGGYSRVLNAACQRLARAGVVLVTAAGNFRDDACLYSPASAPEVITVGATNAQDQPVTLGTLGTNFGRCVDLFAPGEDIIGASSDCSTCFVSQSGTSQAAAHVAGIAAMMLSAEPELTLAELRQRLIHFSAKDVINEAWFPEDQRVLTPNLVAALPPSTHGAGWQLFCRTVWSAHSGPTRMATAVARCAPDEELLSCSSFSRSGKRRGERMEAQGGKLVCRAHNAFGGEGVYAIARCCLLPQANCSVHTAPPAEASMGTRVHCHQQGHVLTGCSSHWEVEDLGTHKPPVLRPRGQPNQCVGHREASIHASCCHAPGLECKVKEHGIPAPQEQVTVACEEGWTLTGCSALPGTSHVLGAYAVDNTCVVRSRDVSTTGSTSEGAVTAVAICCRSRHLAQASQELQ
T1 sequence (Q8NBP7 31-152 partner limits assumed): as the sequence (Q8NBP7 31-152 partner limits assumed) above
Description for PCSK9Δhelix: The former was based on a TF-FRET assay to measure the association of the EGF(A) domain of the LDLR to PCSK9 (“PCSK9/EGF(A) binding assay”) whilst the latter was based on a TR-FRET assay to measure binding of Ab20 to PCSK9Δhelix (“PCSK9Δhelix/Ab20 binding assay”).
The ability of compounds to inhibit binding to PCSK9 was evaluated with a panel of time-resolved fluorescence resonance energy transfer (TR-FRET) binding assays. […] The PCSK9Δhelix/Ab20 binding assay evaluated the ability of compounds to compete with Ab20 for binding to the N-terminal groove region in a His-tagged, PCSK9Δhelix construct. […] Signal generation in the PCSK9 binding assays was dependent upon the binding interaction to bring into close proximity the His-tag on the PCSK9 and the Fc-tag on the ligand. Anti-His-APC was bound to the His-tag, and anti-Fc-europium was bound to the Fc-tag. When these two antibodies were in close proximity and were irradiated with light at 340 nm, the europium was excited and emitted energy at 615 nm. This energy was taken up by the APC and was emitted as light at 665 nm. Compounds that competed with the ligand reduced the energy transfer and thus the emission at 665 nm. In the His-EGFA-Fc molecule in the counterscreen, the two tags were always in close proximity, thus any reduction in emission at 665 nm was due to interference with the detection system.
Compounds were solubilized and dilutions were prepared in DMSO. […] The plate was centrifuged to mix the well contents and allowed to incubate for 30 min. […] The TR-FRET signal was read on a ViewLux reader (PerkinElmer) with excitation at 340 nm and emission at 615 and 665 nm with a 50-μs time delay between excitation and measurement of emission. The TR-FRET ratio was calculated as the fluorescence emission at 665 nm divided by the fluorescence emission at 615 nm. The normalized TR-FRET ratios were plotted as a function of the compound concentrations, and the IC50 values were determined using a 4-parameter logistic regression.
In black 1536-well assay plates (MaKO, Aurora® Microplates, Whitefish, Mont.), 40 nL of peptide in DMSO were preincubated with 2 μL His-tagged PCSK9 plus anti-His-allophycocyanin in assay buffer (50 mM Tris-HCl, pH 7.5, 150 mM NaCl, 2 mM CaCl2, 0.01% Tween®-20, 0.1% bovine gamma globulins, and protease inhibitor cocktail) for 30 min. Then 2 μL of Fc-tagged ligand and anti-Fc-europium in assay buffer were added and allowed to incubate for 2 h.

`CC[C@H](C)[C@@H]1NC(=O)[C@H](CCCNC(=N)N)NC(=O)[C@H](CCCCN)NC(=O)[C@H](CC(C)C)NC(=O)[C@H](CC(N)=O)NC(=O)[C@H](Cc2c[nH]c3ccccc23)NC(=O)[C@@H](NC(C)=O)CSSC[C@@H](C(N)=O)NC(=O)CNC(=O)[C@H](CCC(N)=O)NC(=O)[C@H](CO)NC(=O)CNC1=O` [Compound 21] (Ac-CWNLKRIGSQGC-NH2; disulfide 1-12): the pIC50 at PCSK9 (setting [1]), on PCSK9Δhelix (setting [1]) and with His-EGF(A)-Fc (setting [2]) was less than 4.30 each time.
As for Ac-DLMPWNLVRI-NH2 [Compound 49], the pIC50 on PCSK9 (Example 7) is less than 4.30; at PCSK9Δhelix (Example 7) it was not above 4.31; with His-EGF(A)-Fc (counterscreen, Example 7), less than 4.30.
Consider `CCCCC(=O)N[C@@H](Cc1c[nH]c2ccccc12)C(=O)N[C@@H](CC(N)=O)C(=O)N[C@@H](CC(C)C)C(=O)N[C@H](C(=O)N[C@@H](CCCNC(=N)N)C(=O)N[C@H](C(=O)NCC(=O)N[C@H](C(=O)N[C@H](C(=O)N[C@@H](CCCNC(=N)N)C(N)=O)[C@@H](C)O)[C@@H](C)O)[C@@H](C)CC)C(C)C` [Compound 113] (Pentanoyl-WNLVRIGTTR-NH2), for which the pIC50 is less than 4.30 on PCSK9 (Example 7); less than 4.30 on PCSK9Δhelix (Example 7); less than 4.30 in the test with His-EGF(A)-Fc (counterscreen, Example 7).
`CC[C@H](C)[C@@H]1NC(=O)[C@H](CCCNC(=N)N)NC(=O)[C@H](CCC(N)=O)NC(=O)[C@H](CC(C)C)NC(=O)[C@H](CC(N)=O)NC(=O)[C@H](Cc2c[nH]c3ccccc23)NC(=O)[C@H]2CCCN2C(=O)[C@H](CC(C)C)NC(=O)[C@H](CCCNC(=N)N)NC(=O)[C@@H](NC(C)=O)CSSC[C@@H](C(N)=O)NC(=O)[C@@H]2CCCN2C(=O)[C@H](CC(C)C)NC(=O)CNC1=O` [Compound 107] (Ac-CRL[dP]WNLQRIGLPC-NH2; disulfide 1-14): the pIC50 at PCSK9 (setting [1]), at PCSK9Δhelix (setting [1]) and with His-EGF(A)-Fc (setting [2]) was less than 4.30 throughout.
Turning to Ac-DLMPWNLVRIGLPR-NH2 [Compound 160], the pIC50 on PCSK9 (Table 8E, additional compounds) is not above 4.30; on PCSK9Δhelix (Table 8E, additional compounds), 4.72; with His-EGF(A)-Fc (setting [3]) it was not above 4.30.
Ac-DLAPWNLVRIGLLR-NH2 [Compound 43]: the pIC50 at PCSK9 (Example 7) is less than 4.30; on PCSK9Δhelix (Example 7), 5.09; with His-EGF(A)-Fc (counterscreen, Example 7), less than 4.30.
Consider `CC[C@H](C)[C@H](NC(=O)[C@H](CCCCNC(=N)N)NC(=O)[C@@H](NC(=O)[C@H](CC(C)C)NC(=O)[C@H](CC(N)=O)NC(=O)[C@@H](N)Cc1c[nH]c2ccccc12)C(C)C)C(=O)NCC(N)=O` [Compound 236, WNLV(homoR)IG-NH2] (H-WNLV[hArg]IG-NH2), for which the pIC50 on PCSK9 (Table 8E, additional compounds) was not above 4.30; on PCSK9Δhelix (Table 8E, additional compounds) it was 4.66; in the test on His-EGF(A)-Fc (setting [3]), not above 4.30.
As to `CC[C@H](C)[C@@H]1NC(=O)[C@H](CCCCNC(=N)N)NC(=O)[C@H](CCC(N)=O)NC(=O)[C@H](CC(C)C)NC(=O)[C@H](CC(N)=O)NC(=O)[C@H](Cc2c[nH]c3ccccc23)NC(=O)[C@@H]2CCCN2C(=O)[C@H](CC(C)C)NC(=O)[C@H](CCCNC(=N)N)NC(=O)[C@@H](NC(C)=O)CSSC[C@@H](C(N)=O)NC(=O)[C@@H]2CCCN2C(=O)[C@H](CC(C)C)NC(=O)CNC1=O` [Compound 117] (Ac-CRLPWNLQ[hArg]IGLPC-NH2; disulfide 1-14), the pIC50 was less than 4.30 at PCSK9 (setting [1]), 6.48 at PCSK9Δhelix (setting [1]) and less than 4.30 with His-EGF(A)-Fc (setting [2]).
With `CC[C@H](C)[C@@H]1NC(=O)[C@@H](CCCNC(=N)N)NC(=O)[C@H](CCC(N)=O)NC(=O)[C@H](CC(C)C)NC(=O)[C@H](CC(N)=O)NC(=O)[C@H](Cc2c[nH]c3ccccc23)NC(=O)[C@@H]2CCCN2C(=O)[C@H](CC(C)C)NC(=O)[C@H](CCCNC(=N)N)NC(=O)[C@@H](NC(C)=O)CSSC[C@@H](C(N)=O)NC(=O)[C@@H]2CCCN2C(=O)[C@H](CC(C)C)NC(=O)CNC1=O` [Compound 102] (Ac-CRLPWNLQ[dR]IGLPC-NH2; disulfide 1-14), the pIC50 on PCSK9 (setting [1]), at PCSK9Δhelix (setting [1]) and in the test on His-EGF(A)-Fc (setting [2]) was less than 4.30 each time.
For `CCCCC(=O)N[C@@H](Cc1c[nH]c2cc(Cl)ccc12)C(=O)N[C@@H](CC(N)=O)C(=O)N[C@@H](CC(C)C)C(=O)N[C@H](C(=O)N[C@@H](CCCNC(=N)N)C(=O)N[C@H](C(=O)NCC(=O)N[C@@H](CC(C)C)C(=O)N[C@H](C(=O)N[C@@H](CCCNC(=N)N)C(N)=O)[C@@H](C)O)[C@@H](C)CC)C(C)C` [Compound 186] (Pentanoyl-[Trp(6-Cl)]NLVRIGLTR-NH2), the pIC50 on PCSK9 (Table 8E, additional compounds) was 4.51; at PCSK9Δhelix (Table 8E, additional compounds), 4.96; with His-EGF(A)-Fc (setting [3]), 4.34.
`CC[C@H](C)[C@@H]1NC(=O)[C@H](C)NC(=O)[C@H](CCC(N)=O)NC(=O)[C@H](CC(C)C)NC(=O)[C@H](CC(N)=O)NC(=O)[C@H](Cc2c[nH]c3ccccc23)NC(=O)[C@@H]2CCCN2C(=O)[C@H](CC(C)C)NC(=O)[C@H](CCCNC(=N)N)NC(=O)[C@@H](NC(C)=O)CSSC[C@@H](C(N)=O)NC(=O)[C@@H]2CCCN2C(=O)[C@H](CC(C)C)NC(=O)CNC1=O` [Compound 72] (Ac-CRLPWNLQAIGLPC-NH2; disulfide 1-14): the values for the pIC50 at PCSK9 (setting [1]), on PCSK9Δhelix (setting [1]) and in the test with His-EGF(A)-Fc (setting [2]) were less than 4.30, 4.40 and less than 4.30, respectively.
As for Ac-DLMAWNLVRIGLLR-NH2 [Compound 42], the pIC50 at PCSK9 (Example 7) is less than 4.30; on PCSK9Δhelix (Example 7) it was 4.55; with His-EGF(A)-Fc (counterscreen, Example 7), less than 4.30.
Consider `CC[C@H](C)[C@@H]1NC(=O)[C@H](CCCNC(=N)N)NC(=O)[C@H](CCC(N)=O)NC(=O)[C@H](CC(C)C)NC(=O)[C@H](CC(N)=O)NC(=O)[C@H](Cc2c[nH]c3ccccc23)NC(=O)[C@@H]2CCCN2C(=O)[C@H](CC(C)C)NC(=O)[C@H](CCCNC(=N)N)NC(=O)[C@@H](NC(C)=O)CSSC[C@@H](C(N)=O)NC(=O)CCCCNC1=O` [Compound 115] (Ac-CRLPWNLQRI[Ava]C-NH2; disulfide 1-12), for which the pIC50 at PCSK9 (setting [1]), at PCSK9Δhelix (setting [1]) and in the test with His-EGF(A)-Fc (setting [2]) was less than 4.30 throughout.
Consider `CC[C@H](C)[C@@H]1NC(=O)[C@H](CCCNC(=N)N)NC(=O)[C@H](CCC(N)=O)NC(=O)[C@H](CC(C)C)NC(=O)[C@H](CC(N)=O)NC(=O)[C@H](Cc2c[nH]c3ccccc23)NC(=O)[C@@H]2CCCN2C(=O)[C@H](CC(C)C)NC(=O)[C@H](CCCNC(=N)N)NC(=O)[C@@H](NC(C)=O)CSSC[C@@H](C(N)=O)NC(=O)[C@@H]2CCCN2C(=O)[C@H](CC(C)C)NC(=O)[C@H](C)NC1=O` [Compound 70] (Ac-CRLPWNLQRIALPC-NH2; disulfide 1-14), for which the pIC50 at PCSK9 (setting [1]) is less than 4.30; at PCSK9Δhelix (setting [1]), 5.14; in the test with His-EGF(A)-Fc (setting [2]), less than 4.30.
In the case of `CCCC(=O)N[C@@H](Cc1c[nH]c2ccccc12)C(=O)N[C@@H](CC(N)=O)C(=O)N[C@@H](CC(C)C)C(=O)N[C@H](C(=O)N[C@@H](CCCNC(=N)N)C(=O)N[C@H](C(=O)NCC(=O)N[C@@H](CC(C)C)C(=O)N[C@@H](CC(C)C)C(=O)N[C@@H](CCCNC(=N)N)C(N)=O)[C@@H](C)CC)C(C)C` [Compound 123] (Butyryl-WNLVRIGLLR-NH2), the pIC50 at PCSK9 (Table 8E, additional compounds) is not above 4.30; on PCSK9Δhelix (Table 8E, additional compounds), 4.74; in the test with His-EGF(A)-Fc (setting [3]), not above 4.30.
With `CC[C@H](C)[C@@H]1NC(=O)[C@H](CCCNC(=N)N)NC(=O)[C@H](CCC(N)=O)NC(=O)[C@H](CC(C)C)NC(=O)[C@H](CC(N)=O)NC(=O)[C@H](Cc2c[nH]c3ccccc23)NC(=O)[C@@H]2CCCN2C(=O)[C@H](CC(C)C)NC(=O)[C@H](C)NC(=O)[C@@H](NC(C)=O)CSSC[C@@H](C(N)=O)NC(=O)[C@@H]2CCCN2C(=O)[C@H](CC(C)C)NC(=O)CNC1=O` [Compound 79] (Ac-CALPWNLQRIGLPC-NH2; disulfide 1-14), the pIC50 on PCSK9 (setting [1]) is less than 4.30; on PCSK9Δhelix (setting [1]) it was 5.82; with His-EGF(A)-Fc (setting [2]) it was less than 4.30.
